One assay concerns E. coli BW25113. Format: cell-based, Escherichia coli. The method in brief: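 Growth inhibition: log-phase cells (OD600 ~0.001), peptides in 2-fold series up to 400–800 μM in MHB II, EDTA 0.5 mM (E. coli) or 0.125 mM (USA300), 4 h at 37 °C, ATP luminescence readout. MICs: inoculum at OD600 ~0.0002, with or without EDTA, 20 h at 37 °C, OD600 endpoint.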
The test system of a further assay is K. pneumoniae. The format is cell-based, Klebsiella pneumoniae. The method, then: (§1) Bacterial growth conditions. LB or Mueller Hinton II cation-adjusted broth (MHB II, BBL 212322) was prepared according to manufacturer's instructions and supplemented with arabinose at 0.02% for overnight growth or at indicated concentrations in the description of the figures. Bacterial cultures were grown at 37° C. When appropriate, media was supplemented with kanamycin (50 μg/mL), carbenicillin (50 μg/mL), chloramphenicol (12.5 or 25 μg/mL), hygromycin (200 μg/mL), and/or gentamicin (10 μg/mL).
(§2) Peptide sensitivity and MIC assays. Lyophilized peptides (Smartox Biotechnology, CPC Scientific. ABclonal) were solubilized to 10 mM in Tris buffer, pH 8, prior to making a 2-fold dilution series in MHBII cation adjusted broth with highest final assay concentration of 400-800 μM. Bacteria were grown to log phase and added to final OD600˜0.001. The final EDTA concentration was 0.5 mM for E. coli strains and 0.125 mM for USA300. The final volume of 10 μL/well in a 384 well black, clear bottom plate (Corning) was spun <1 min at <250×g and then incubated at 37° C. After 4 h, an equal volume (10 μL) of BacTiter-Glo™ (Promega) was added to each well and luminescence was read after 5 min on an EnVision plate reader (PerkinElmer). To measure the minimal inhibitory concentrations (MICs), bacteria from fresh overnight plates or log phase cultures were diluted with or without EDTA and peptides as described above to final OD600˜0.0002. Plates were incubated at 37° C. for 20 h before measuring OD600 with an EnVision plate reader.

Another assay has as its system A. baumannii. Format: cell-based, Acinetobacter baumannii. The protocol:
as §1, §2

The next assay concerns P. aeruginosa. The format is cell-based, Pseudomonas aeruginosa. The protocol: as §1, §2
In another assay the test system is E. coli ΔwaaD MCR-1. Nature of the assay: MIC assay, E. coli ΔwaaD MCR-1. Format: cell-based, Escherichia coli. The conditions noted are these: Table 7. The method, then: as §1, §2
The test system of another assay is E. coli ΔwaaD + vect. The assay can be described thus: MIC assay, E. coli ΔwaaD + vect. The format is cell-based, Escherichia coli. The note with it: Table 7. The method, then:
as §1, §2

Converted amounts (≈) assume the structure as drawn. Where two headings read alike, the source gives them in different places. Square brackets hold non-standard residues; d marks the D form. Peptide text beside a SMILES is read from it. Bip = N[C@@H](Cc1ccc(-c2ccccc2)cc1)C(=O)O; Ahp(2) = CCCCC[C@H](N)C(=O)O; NMeM = CN[C@@H](CCSC)C(=O)O; hSer = N[C@@H](CCO)C(=O)O; NMeA = CN[C@@H](C)C(=O)O; Nle = CCCC[C@H](N)C(=O)O; Dap = NC[C@H](N)C(=O)O

The source of these data is patent publication US20220135622A1, “ANTIBACTERIAL PEPTIDES AND METHODS OF USE” (priority 2019, published 2022).

For the molecule `CCCC[C@H](NC(=O)[C@@H]1CCCN1C(=O)[C@H](Cc1ccc(O)cc1)NC(C)=O)C(=O)N[C@H](C(=O)N[C@@H](C)C(=O)N[C@@H](CCCNC(=N)N)C(=O)N[C@@H](CCCNC(=N)N)C(=O)N[C@@H](Cc1ccccc1)C(=O)N[C@@H](CC(C)C)C(=O)N[C@@H](CCC(=O)O)C(=O)N[C@@H](CCCCN)C(=O)N[C@@H](Cc1c[nH]c2ccccc12)C(=O)NCC(=O)N[C@@H](CC(C)C)C(=O)N[C@@H](CC(C)C)C(=O)N[C@@H](CCCNC(=N)N)C(N)=O)[C@@H](C)O` [compound 62] (Ac-YP[Nle]TARRFLEKWGLLR-NH2), the “MIC E. coli BW25113” value against E. coli BW25113 (Table 8) was determined as 400 µM (≈ 824 µg/mL). Besides, the “MIC K. pneumoniae” value in the assay on K. pneumoniae (Table 8) came to 200 µM (≈ 412 µg/mL). For the same molecule, the “MIC A. baumannii” value in the assay with A. baumannii (Table 8) worked out at 200 µM (≈ 412 µg/mL). Moreover, the “MIC R. aeruginosa” value with P. aeruginosa (Table 8) is 200 µM (≈ 412 µg/mL). For the same molecule, the “MIC E coli ΔwaaD − MCR1” value in the assay on E. coli ΔwaaD MCR-1 was 200 µM (≈ 412 µg/mL). The “MIC E. coli ΔwaaD + vect.” value in the assay on E. coli ΔwaaD + vect. was less than 6.25 µM.
With `CSCC[C@H](NC(=O)[C@@H]1CCCN1C(=O)[C@H](Cc1ccc(O)cc1)NC(C)=O)C(=O)N[C@@H](CCO)C(=O)N[C@@H](C)C(=O)N[C@@H](CCCNC(=N)N)C(=O)N[C@@H](CCCNC(=N)N)C(=O)N[C@@H](Cc1ccccc1)C(=O)N[C@@H](CC(C)C)C(=O)N[C@@H](CCC(=O)O)C(=O)N[C@@H](CCCCN)C(=O)N[C@@H](Cc1c[nH]c2ccccc12)C(=O)NCC(=O)N[C@@H](CC(C)C)C(=O)N[C@@H](CC(C)C)C(=O)N[C@@H](CCCNC(=N)N)C(N)=O` [compound 63] (Ac-YPM[hSer]ARRFLEKWGLLR-NH2), in the assay on E. coli BW25113 (Table 8), the “MIC E. coli BW25113” value was 400/200. Further, the “MIC K. pneumoniae” value in the assay on K. pneumoniae (Table 8) turned out to be 200 µM (≈ 416 µg/mL). In addition, the “MIC A. baumannii” value against A. baumannii (Table 8) was 200 µM (≈ 416 µg/mL). Moreover, the “MIC R. aeruginosa” value with P. aeruginosa (Table 8) amounted to 400 µM (≈ 831 µg/mL). The “MIC E coli ΔwaaD − MCR1” value with E. coli ΔwaaD MCR-1 was 200 µM (≈ 416 µg/mL). The “MIC E. coli ΔwaaD + vect.” value in the assay on E. coli ΔwaaD + vect. is less than 6.25 µM.
With `CSCC[C@H](NC(=O)[C@H](CN)NC(=O)[C@H](CCSC)NC(=O)[C@@H]1CCCN1C(=O)[C@H](CCCNC(=N)N)NC(C)=O)C(=O)N[C@@H](CCCNC(=N)N)C(=O)N[C@@H](CCCNC(=N)N)C(=O)N[C@@H](Cc1ccc(-c2ccccc2)cc1)C(=O)N[C@@H](CC(C)C)C(=O)N[C@@H](CCC(=O)O)C(=O)N[C@@H](CCCCN)C(=O)N[C@@H](Cc1c[nH]c2ccccc12)C(=O)NCC(=O)N[C@@H](CC(C)C)C(N)=O` [compound 209] (Ac-RPM[Dap]MRR[Bip]LEKWGL-NH2), the “MIC E. coli BW25113” value with E. coli BW25113 (Table 8) was 6.25 µM (≈ 12 µg/mL). In addition, the “MIC K. pneumoniae” value against K. pneumoniae (Table 8) amounted to 12.5 µM (≈ 24 µg/mL). Further, the “MIC A. baumannii” value against A. baumannii (Table 8) came out at 12.5 µM (≈ 24 µg/mL). In the assay on P. aeruginosa (Table 8), the “MIC R. aeruginosa” value was determined as 25.0 µM (≈ 48.1 µg/mL).
For `CSCC[C@H](NC(=O)[C@@H]1CCCN1C(=O)[C@H](CCCNC(=N)N)NC(C)=O)C(=O)N[C@H](C(=O)N[C@@H](C)C(=O)N[C@@H](CCCNC(=N)N)C(=O)N[C@@H](CCCNC(=N)N)C(=O)N[C@@H](Cc1c[nH]c2ccccc12)C(=O)N[C@@H](CC(C)C)C(=O)N[C@@H](CCO)C(=O)N[C@@H](CCCCN)C(=O)N[C@@H](CCCNC(=N)N)C(=O)NCC(=O)N[C@@H](CC(C)C)C(N)=O)[C@@H](C)O` [compound 211] (Ac-RPMTARRWL[hSer]KRGL-NH2), the “MIC E. coli BW25113” value against E. coli BW25113 (Table 8) came to 50.0 µM (≈ 89.2 µg/mL). The “MIC K. pneumoniae” value in the assay on K. pneumoniae (Table 8) is more than 400.0 µM. The “MIC A. baumannii” value against A. baumannii (Table 8) is more than 400.0 µM. For the same molecule, the “MIC R. aeruginosa” value against P. aeruginosa (Table 8) was more than 400.0 µM.
Consider `CCCCC[C@H](NC(=O)[C@@H](NC(=O)[C@H](CCSC)NC(=O)[C@@H]1CCCN1C(=O)[C@H](CCCNC(=N)N)NC(C)=O)[C@@H](C)O)C(=O)N[C@@H](CCCNC(=N)N)C(=O)N[C@@H](CCCNC(=N)N)C(=O)N[C@@H](Cc1c[nH]c2ccccc12)C(=O)N[C@@H](CC(C)C)C(=O)N[C@@H](CCC(=O)O)C(=O)N[C@@H](CCCCN)C(=O)N[C@@H](CCCNC(=N)N)C(=O)NCC(=O)N[C@@H](CC(C)C)C(N)=O` [compound 212] (Ac-RPMT[Ahp(2)]RRWLEKRGL-NH2), for which, in the assay with E. coli BW25113 (Table 8), the “MIC E. coli BW25113” value came to 100.0 µM (≈ 187 µg/mL). In the assay with K. pneumoniae (Table 8), the “MIC K. pneumoniae” value is more than 400.0 µM. In the assay with A. baumannii (Table 8), the “MIC A. baumannii” value turned out to be 200.0 µM (≈ 373 µg/mL). For the same molecule, in the assay with P. aeruginosa (Table 8), the “MIC R. aeruginosa” value is more than 400.0 µM.
Turning to `COC[C@H](NC(=O)[C@@H](NC(=O)[C@H](CCSC)NC(=O)[C@@H]1CCCN1C(=O)[C@H](CCCNC(=N)N)NC(C)=O)[C@@H](C)O)C(=O)N[C@@H](CCCNC(=N)N)C(=O)N[C@@H](CCCNC(=N)N)C(=O)N[C@@H](Cc1c[nH]c2ccccc12)C(=O)N[C@@H](CC(C)C)C(=O)N[C@@H](C)C(=O)N[C@@H](CCCCN)C(=O)N[C@@H](CCCNC(=N)N)C(=O)NCC(=O)N[C@@H](CC(C)C)C(N)=O` [compound 215] (Ac-RPMTS(Me)RRWLAKRGL-NH2), the “MIC E. coli BW25113” value against E. coli BW25113 (BW25113) came to 200.0 µM (≈ 357 µg/mL). Also, the “MIC K. pneumoniae” value in the assay on K. pneumoniae is more than 400.0 µM. The “MIC A. baumannii” value against A. baumannii was more than 400.0 µM. For the same molecule, the “MIC R. aeruginosa” value against P. aeruginosa was more than 400.0 µM.
In the case of `CSCC[C@@H](C(=O)N[C@H](C(=O)N(C)[C@@H](C)C(=O)N[C@@H](CCCNC(=N)N)C(=O)N[C@@H](CCCNC(=N)N)C(=O)N[C@@H](Cc1c[nH]c2ccccc12)C(=O)N[C@@H](CC(C)C)C(=O)N[C@@H](C)C(=O)N[C@@H](CCCCN)C(=O)N[C@@H](CCCNC(=N)N)C(=O)NCC(=O)N[C@@H](CC(C)C)C(N)=O)[C@@H](C)O)N(C)C(=O)[C@@H]1CCCN1C(=O)[C@H](CCCNC(=N)N)NC(C)=O` [compound 216] (Ac-RP[NMeM]T[NMeA]RRWLAKRGL-NH2), in the assay on E. coli BW25113 (BW25113), the “MIC E. coli BW25113” value came out at 100.0 µM (≈ 178 µg/mL). The “MIC K. pneumoniae” value against K. pneumoniae is more than 400.0 µM. The “MIC A. baumannii” value against A. baumannii was more than 400.0 µM. Further, the “MIC R. aeruginosa” value against P. aeruginosa was more than 400.0 µM.
Consider Ac-RPMTARRFLAKRGL-NH2 [compound 210], for which, in the assay on E. coli BW25113 (Table 8), the “MIC E. coli BW25113” value turned out to be 200.0 µM. In addition, the “MIC K. pneumoniae” value in the assay with K. pneumoniae (Table 8) was more than 400.0 µM. The “MIC A. baumannii” value against A. baumannii (Table 8) was more than 400.0 µM. The “MIC R. aeruginosa” value in the assay on P. aeruginosa (Table 8) was more than 400.0 µM.
For Ac-RPMTARRWLAKRGL-NH2 [compound 201], the “MIC E. coli BW25113” value in the assay with E. coli BW25113 (BW25113) came out at 25.0 µM. Besides, the “MIC K. pneumoniae” value with K. pneumoniae was more than 400.0 µM. The “MIC A. baumannii” value against A. baumannii was more than 400.0 µM. In addition, the “MIC R. aeruginosa” value in the assay on P. aeruginosa is more than 400.0 µM.
